Measurements as given in patent publication US20060173069A1, “Therapeutic agent for hyperpotassemia and bone disease” (RIKEN, priority 2003, published 2006).

Columns and labels:
mature osteoclasts = test: Cell-death (apoptosis) inducing activity on mature osteoclasts, number of TRAP-stained multinuclear cells; type: cell-based, mouse; conditions: for EC50: Mus musculus, Osteoclast, RAW264-derived mature osteoclasts, 24 hours incubation, TRAP staining, read-out: ED50 level of cell-death inducing activity to mature osteoclasts, Number of cells; for selective apoptosis inducing effect on the mature osteoclasts: in words
Procedure: Using 29 different reveromycin A derivatives synthesized as described above, the cell-death inducing activities on the mature osteoclasts and undifferentiated macrophage-like cells derived from a mouse (RAW264 cells) were examined, respectively. The RAW264 cells, a mouse-macrophage cell line, were suspended in a 10% FBS-αMEM (manufactured by Gibco BRL Co., Ltd.) and then 12,000 cells/100 μl were inoculated in a 96-well plate. After 1-hour incubation, 100 μl of a culture medium containing RANKL ([…]) and PD98059 (40 μM) were added (final concentration: RANKL […] and PD98059 20 μM) and then incubated for 4 days to allow the differentiation of the cells to mature osteoclasts (J. Biol. Chem. Vol. 277, pp. 47366-47372 (2002)). Furthermore, on the second day of the culture, the half of the culture medium was replaced with new one. From each well of the plate where the cells were differentiated to the mature osteoclasts, 100 μl/well of the culture medium was removed. […] The apoptosis inducing activity was confirmed by the observation of agglutination of nuclei stained with 10 μM Hoechst 33258 for 10-minututes.

[1] = test system: undifferentiated RAW264 cells; test: Cell-death inducing activity on undifferentiated RAW264 cells, MTT method; type: cell-based, mouse; conditions: for CC50: Mus musculus, RAW264.7, 24 hours incubation, MTT, read-out: ED50 level of cell-death inducing activity to undifferentiated RAW264 cells, MTT; for growth inhibitory action on the osteoclast precursor cells RAW264: even at a comparatively high concentration
Procedure: The cell-death inducing activities to the undifferentiated RAW264 cells were investigated by the MTT method (J. Immunol. Methods, Vol. 65, pp 55-63 (1983). The RAW 264 cells were plated on a 96-well plate at a density of 40,000 cells/100 μl and then incubated for 24 hours. After the 24-hour incubation, 50 μl of a culture medium containing a three-fold concentration of the drug was added and then incubated for 24 hours to investigate the cell-death inducing activity. Two hours before the measurement of the cell-death inducing activity, 15 μl of 0.5% MTT-PBS (phosphate buffer saline) was added and incubated. After that, the residue from which the culture solution was removed was dissolved in 100 μl of DMSO (dimethyl sulfoxide) and the absorbance at 570 nm (a reference wave length of 630 nm) was measured, followed by calculating the ED50 level of the cell-death inducing activity.

[2] = test system: bone resorption due to parathyroid hormone (PTH); test: Serum calcium in TPTX rats with hypercalcemia by continuous PTH infusion; type: in vivo, SD rats; conditions: for increase in the level of serum calcium due to PTH: 80 mg/kg, TPTX SD rats, administered 12 hours after start of PTH, followed 24 hours; for duration of inhibitory action on bone resorption: comparison of calcitonin with reveromycin A derivatives
Procedure: The bone resorption inhibitory effects of the reveromycin A derivatives were examined by measuring the level of serum calcium released in the blood by the action of bone resorption. SD rats were subjected to an operation of extracting the thyroid glands and the parathyroid glands (TPTX). Next day, a decrease in serum calcium was confirmed and then the continuous infusion of the parathyroid hormone (PTH) was carried out, thereby creating rats each having hypercalcemia by accelerating the bone resorption.
At 12 hours from the initiation of PTH injection, the reveromycin A derivatives ([…]) or a sodium salt thereof ([…]) were administered and the level of serum calcium was then measured in time-course for 24 hours.

[3] = test system: anterior limb long bone, bone resorption induced by PTH, IL-1 or vitamin D3; test: Inhibition of 45Ca liberation (bone resorption activity) from cultured fetal long bone; type: cell-based, rat; conditions: 72 hours culture; for inhibition of bone resorption induced by the PTH: 10^−8M, 10^−7M and 10^−6M, PTH 10^−8M; for inhibition of bone resorption due to vitamin D3 or IL-1: IL-1 0.3 ng/ml, vitamin D3 10^−8M
Procedure: The effects of the reveromycin A derivatives on the facilitation of the bone resorption due to the parathyroid hormone (PTH) were measured.
A19-day pregnant rat was subjected to the hypodermic injection of [^45Ca]CaCl2 to label a fetal bone. After 24 hours, the anterior limb long bone was extracted. For an anterior limb long bone, a Dulbecco-modified Eagle medium (DMEM) containing 15% heat-inactivated horse serum and 100 U/ml penicillin was used as a culture medium and then incubated for 72 hours together with a bone resorption factor (PTH 10^−8M, IL-1 0.3 ng/ml, vitamin D3 10^−8M) and the reveromycin A derivatives. After incubation, ^45Ca radioactivities in a solution into which calcium of the bone was eluted by 0.1 N HCl and in the culture solution were measured using a liquid scintillation counter. The ratio of the amount of calcium released into the culture solution to the total amount of calcium (bone resorption activity (%)) was used as an indicator and the effects of the reveromycin A derivatives on the facilitation of the bone resorption due to the PTH was investigated. • Bone resorption activity (%)=100×Amount of ^45Ca released into culture solution/(Amount of ^45Ca released into culture solution+Amount of ^45Ca left in bone)

Compound | EC50 (mature osteoclasts) [µM] | selective apoptosis inducing effect on the mature osteoclasts (mature osteoclasts) | CC50 [1] [µM] | growth inhibitory action on the osteoclast precursor cells RAW264 [1] | increase in the level of serum calcium due to PTH [2] | duration of inhibitory action on bone resorption [2] | inhibition of bone resorption induced by the PTH [3] | inhibition of bone resorption due to vitamin D3 or IL-1 [3]
CCCC[C@@]1(OC(=O)CCC(=O)O)CC[C@]2(CC[C@H](C)[C@@H](C/C=C(C)/C=C/[C@H](O[Si](C)(C)C(C)(C)C)[C@@H](C)/C=C/C(=O)O)O2)O[C@H]1/C=C/C(C)=C/C(=O)O [Compound 2, C5-silylether] | 6.6 | showed a selective apoptosis inducing effect | 89 | do not show any growth inhibitory action | significant suppression | prolonged inhibitory action on bone resorption | inhibited the bone resorption induced by the PTH at 10^−8M, 10^−7M, and 10^−6M, in a concentration-dependent manner | could be also inhibited
CCCC[C@@]1(OC(=O)CCC(=O)O)CC[C@]2(CC[C@H](C)[C@@H](C/C=C(C)/C=C/[C@H](OC(C)=O)[C@@H](C)/C=C/C(=O)O)O2)O[C@H]1/C=C/C(C)=C/C(=O)O [Compound 27, C5-acetate] | 1.3 | showed a selective apoptosis inducing effect | 49 | do not show any growth inhibitory action | significant suppression | prolonged inhibitory action on bone resorption | inhibited the bone resorption induced by the PTH at 10^−8M, 10^−7M, and 10^−6M, in a concentration-dependent manner | could be also inhibited
